This is an account of results in patent publication US20100210597A1, “C21-Deoxy Ansamycin Derivatives as Antitumor Agents” (priority 2007, published 2010).

Values after ≈ are worked out from the molar mass of the structure shown. Values joined by “and” are separate entries in the source; they are usually repeats but may differ in a detail not shown here. Identical values can stand only once. Like-named read-outs stand apart in the source and are kept apart here.

Usually half-life stands for the time in which the quantity being followed falls by half. The solubility is how much of the substance goes into solution per volume.

Series [1] relates to panel of human tumour cell lines. Put plainly: Monolayer proliferation assay, mean across cell line panel. In kind it is cell-based. The conditions noted are these: geometric mean of all replicates across six cell lines. The procedure: In vitro evaluation of compounds for anticancer activity in a panel of human tumour cell lines in a monolayer proliferation assay was carried out at the Oncotest Testing Facility, Institute for Experimental Oncology, Oncotest GmbH, Freiburg.
The Oncotest cell lines are established from human tumor xenografts as described by Roth et al., (1999). The origin of the donor xenografts is described by Fiebig et al., (1999). Other cell lines are either obtained from the NCl (DU145, MCF-7) or purchased from DSMZ, Braunschweig, Germany.
All cell lines, unless otherwise specified, are grown at 37° C. in a humidified atmosphere (95% air, 5% CO2) in a ‘ready-mix’ medium containing RPMI 1640 medium, 10% fetal calf serum, and 0.1 mg/mL gentamicin (PAA, Cölbe, Germany).
A modified propidium iodide assay was used to assess the effects of the test compound(s) on the growth of six human tumour cell lines (Dengler et al., (1995)).
Briefly, cells are harvested from exponential phase cultures by trypsinization, counted and plated in 96 well flat-bottomed microtitre plates at a cell density dependent on the cell line (5-10.000 viable cells/well). […] After thawing the plates, fluorescence was measured using the Cytofluor 4000 microplate reader (excitation 530 nm, emission 620 nm), giving a direct relationship to the total number of viable cells.
Growth inhibition is expressed as treated/control×100 (% T/C). […]

Another series has as its target Hsp90 (Homo sapiens, UniProt P07900). The conditions noted are these: cited from earlier work.
Series [2] can be described thus: In vitro cleavage assay in buffer. In kind it is physicochemical. The conditions noted are these: for half-life at 0.1 mg/ml: read-out: half-life of disappearance (converted). As to the method:
Samples were monitored by LC-UV, on an Agilent 1100 HPLC. Chromatography was achieved over a Phenomenex Hyperclone column, BDS C18 3 u (150×4.6 mm):
Mobile phase A: 0.1% Formic acid in water Mobile phase B: 0.1% Formic acid in acetonitrile Flow rate: 1 mL/minute: Gradient, t=0 mins, B=10%; t=2 mins, B=10%; t=20 mins, B=100%.
Compound 23 elutes at 12.1 mins and compound 17 elutes at 11.2 minutes in these conditions.
0.05 ml injections were made, repeatedly from the same sample every 3.18 hours, for 50 hours. the ambient temperature was 23 degrees C. The UV response was measured for each time point for compound 23 and 17. The half-life of disappearance of compound 23 was calculated thus:
the natural logarithm of the response was plotted with respect to time (in hours). The slope and fit of the resultant line was calculated and the half life, t1/2=(In 2)/lambda. Where lambda is the slope of the graph.

Series [3] can be described thus: Aqueous solubility by direct dissolution. In kind it is physicochemical. Conditions: pH 4.5, aqueous buffer, aqueous 5 mM citrate, pH 4.5; limit not tested. From the text: It is not possible to measure the solubility of 20 and 23 by this method due to their intrinsic high aqueous solubility.
The nature of series [4]: Solubility assay in 2% DMSO in PBS. In kind it is physicochemical. Conditions: 2% DMSO in PBS pH 7.3, 0.5 mM, shaken up to six hours. As to the method: To analyse the solubilities of 17-AAG, geldanamycin, 18,21-dihydromacbecin and macbecin, solutions (25 mM) of the test compounds were prepared by dissolving 3-5 mg aliquots in the appropriate amount of DMSO.
Aliquots (0.01 mL) were added to 0.490 mL of pH 7.3 PBS in glass vials. For each time point, 3 PBS vials were prepared in amber glass vials. For the six hour time point triplicate aliquots in DMSO were also prepared.
The resulting 0.5 mM solutions were shaken for up to six hours, with vials removed for analysis at 1, 3 and 6 hours. Samples were analysed by HPLC (0.025 mL injections). Compounds were quantified by peak area measurement at 274 nm.
Solubility in 2% DMSO in PBS at each time point was determined by comparing total peak areas for each chromatogram with mean total peak area for chromatograms produced from the corresponding 6 hour DMSO solutions. (Mean total peak area in DMSO solutions was assumed to be equivalent to a 0.5 mM solution). The solubility of compound 17 was measured by a thermodynamic assay as described in the general methods.

For `CO[C@H]1[C@@H](OC)C[C@H](C)[C@@H](OC)C2=CC(=O)C=C(NC(=O)/C(C)=C/C=C\[C@H](C)[C@@H](OC(N)=O)/C(C)=C/[C@@H]1C)C2=O` [macbecin, reference compound], the “average IC70 value across the cell-line panel” value in series [1] turned out to be 0.21 µg/mL.
As for `CO[C@H]1C[C@H](C)Cc2cc(O)cc(c2)NC(=O)/C=C/CC[C@H](OC)[C@@H](OC(N)=O)/C(C)=C/[C@H](C)[C@H]1O` [KOSN1559], the “binding affinity to Hsp90, greater than 17-AAG” value at Hsp90 (relative to 17-AAG) is on record as 8 fold. Moreover, the “binding affinity to Hsp90, greater than geldanamycin” value at Hsp90 (relative to geldanamycin) is listed as 4 fold.
Take `CNCCN(C)C(=O)Oc1cc2cc(c1)NC(=O)/C(C)=C/CC[C@H](C)[C@@H](OC(N)=O)/C(C)=C/[C@H](C)[C@@H](O)[C@@H](OC)C[C@H](C)C2` [Compound 23, 18-O-(N,N′-dimethylethylenediaminecarbamoyl)-4,5-dihydro-11-O-demethyl-15-demethoxy-18,21-didehydro-18-hydroxy-21-deoxomacbecin]: the half-life of disappearance result in series [2] (0.1 M potassium phosphate buffer pH 4.5, 23 degrees C) is reported as “not calculable (zero slope)”. For the same compound, the half-life at 0.1 mg/ml was 69.3 h in series [2] (0.1 M potassium phosphate buffer pH 5.9, 23 degrees C); 11.9 h in series [2] (0.1 M potassium phosphate buffer pH 6.5, 23 degrees C); 2 h in series [2] (0.1 M potassium phosphate buffer pH 7.4, 23 degrees C); 32 h in series [2] (5% glucose, 23 degrees C). For the same compound, the product of cleavage result in series [2] (by LC-UV-MS) is “compound 17”. In addition, the solubility in series [3] is ≥ 3000 µg/mL and ≥ 4600 µM.
Consider `C=CCNC1=C2C[C@@H](C)C[C@H](OC)[C@H](O)[C@@H](C)/C=C(\C)[C@H](OC(N)=O)[C@@H](OC)/C=C\C=C(/C)C(=O)NC(=CC1=O)C2=O` [Compound 17-AAG, 17-(allylamino)-17-desmethoxy geldanamycin], for which the solubility in series [4] worked out at 171 µM (≈ 100 µg/mL).
`COC1CC(C)C(OC)c2cc(O)cc(c2O)NC(=O)/C(C)=C\C=C/C(C)C(OC(N)=O)/C(C)=C\C(C)C1OC` (stereo not drawn) [18,21-dihydromacbecin] gave a solubility in series [4] of 136 µM (≈ 76.3 µg/mL).
